We go through eight compounds from PubChem BioAssay AID1259407 (Chemical Carcinogenesis Research Information System (CCRIS), 2018).

The data set deals with CCRIS mutagenicity, Ames/micronucleus/aberration tests. As to the kind of experiment: CCRIS mutagenicity studies.
The mark [1] stands for this setting: Test System: AMES SALMONELLA TYPHIMURIUM, Strain/Indicator: TA100, Metabolic Activation: NONE, Method: PREINCUBATION
[2] abbreviates: Test System: AMES SALMONELLA TYPHIMURIUM, Strain/Indicator: TA102, Metabolic Activation: NONE, Method: PREINCUBATION
[3] abbreviates: Test System: AMES SALMONELLA TYPHIMURIUM, Strain/Indicator: TA104, Metabolic Activation: NONE, Method: PREINCUBATION
Setting [4] is: Test System: AMES SALMONELLA TYPHIMURIUM, Strain/Indicator: TA1535, Metabolic Activation: NONE, Method: PREINCUBATION
Setting [5] is: Test System: AMES SALMONELLA TYPHIMURIUM, Strain/Indicator: TA1537, Metabolic Activation: NONE, Method: PREINCUBATION
The mark [6] stands for this setting: Test System: AMES SALMONELLA TYPHIMURIUM, Strain/Indicator: TA98, Metabolic Activation: NONE, Method: STANDARD PLATE.
The mark [7] stands for this setting: Test System: AMES SALMONELLA TYPHIMURIUM, Strain/Indicator: TA100, Metabolic Activation: NONE, Method: STANDARD PLATE.
The mark [8] stands for this setting: Test System: AMES SALMONELLA TYPHIMURIUM, Strain/Indicator: TA98, Metabolic Activation: NONE, Method: PREINCUBATION
The mark [9] stands for this setting: Test System: AMES SALMONELLA TYPHIMURIUM, Strain/Indicator: TA1535, Metabolic Activation: NONE, Method: STANDARD PLATE.

Calls of active or inactive are those of the source. The rule behind the calls is not given here.

For `O=O`, the mutagenic call by setting is: (Test System: AMES SALMONELLA TYPHIMURIUM, Strain/Indicator: TA92, Metabolic Activation: NONE, Method: PREINCUBATION) “inactive; negative”; (Test System: AMES SALMONELLA TYPHIMURIUM, Strain/Indicator: TA97, Metabolic Activation: NONE, Method: PREINCUBATION) “inactive; negative”; under setting [1], “inactive; negative”; under setting [2], “active; positive”; under setting [3], “active; positive”; under setting [4], “inactive; negative”. Besides, the mutagenic call is, setting by setting: under setting [5], “inactive; negative”; (Test System: CHINESE HAMSTER V-79, Strain/Indicator: V-79/8-AZAGUANINE, Metabolic Activation: NONE, Method: STANDARD PLATE) “active; positive”; (Test System: CHINESE HAMSTER V-79 CELLS, Strain/Indicator: V-79-UL (HPRT)/6-THIOGUANINE, Metabolic Activation: NONE, Method: SUSPENSION/PLATE) “active; positive”; (Test System: MOUSE LYMPHOMA, Strain/Indicator: L5178Y (TK+/-), Metabolic Activation: NONE, Method: SUSPENSION/PLATE) “active; positive”.

`O=C1O[C@@H]2[C@@H](O)CO[C@]2(O)[C@@]1(O)Cc1c[nH]c2ccccc12`: the mutagenic call is “inactive; negative” under setting [6]; “inactive; negative” (Test System: AMES SALMONELLA TYPHIMURIUM, Strain/Indicator: TA98, Metabolic Activation: RAT, LIVER, S-9, PCB, Method: STANDARD PLATE); “inactive; negative” under setting [7]; “inactive; negative” (Test System: AMES SALMONELLA TYPHIMURIUM, Strain/Indicator: TA100, Metabolic Activation: RAT, LIVER, S-9, PCB, Method: STANDARD PLATE).

For `O[C@H]1C=Cc2cccnc2[C@@H]1O`, the mutagenic call by setting is: under setting [7], “inactive; negative”; (Test System: AMES SALMONELLA TYPHIMURIUM, Strain/Indicator: TA100, Metabolic Activation: RAT, LIVER, S-9, AROCLOR 1254 (10 OR 20%), Method: STANDARD PLATE) “inactive; negative”.

Consider `COc1c(C(=O)O)c(=O)[nH]c2ccccc12`, for which the mutagenic call is “inactive; negative” under setting [6] and “inactive; negative” (Test System: AMES SALMONELLA TYPHIMURIUM, Strain/Indicator: TA98, Metabolic Activation: RAT LIVER S-9, PHENOBARTITAL, Method: STANDARD PLATE).

In the case of `CC[C@@]1(O)C[C@H](O[C@H]2C[C@H](N(C)C)[C@H](O[C@H]3C[C@H](O)[C@H](O)[C@H](C)O3)C(C)O2)c2c(cc3c(c2O)C(=O)c2c(O)ccc(O)c2C3=O)[C@H]1C(=O)OC` (some centres undefined), the mutagenic call was “active; positive” (Test System: AMES SALMONELLA TYPHIMURIUM, Strain/Indicator: TA102, Metabolic Activation: NONE, Method: STANDARD PLATE) and “active; positive” (Test System: AMES SALMONELLA TYPHIMURIUM, Strain/Indicator: TA104, Metabolic Activation: NONE, Method: STANDARD PLATE).

Turning to `CCOC(=O)CBr`, the mutagenic call by setting is: (End Point: IN VITRO CHROMOSOMAL ABERRATIONS, Test System: CHL CELLS, Metabolic Activation: RAT, LIVER, S-9, SODIUM PHENOBARBITAL AND 5,6-BENZOFLAVONE) “inactive; negative; authors report equivocal results for structural changes at highest dos”; under setting [8], “inactive; negative”; under setting [6], “inactive; negative”; (Test System: AMES SALMONELLA TYPHIMURIUM, Strain/Indicator: TA98, Metabolic Activation: RAT LIVER S-9, PHENOBARBITAL AND BETA-NAPHTHOFLAVONE, Method: PREINCUBATION) “inactive; negative”; (Test System: AMES SALMONELLA TYPHIMURIUM, Strain/Indicator: TA98, Metabolic Activation: RAT, LIVER, S-9, AROCLOR 1254, Method: STANDARD PLATE) “inactive; negative”; under setting [1], “inactive; negative”. In addition, the mutagenic call is, setting by setting: under setting [7], “inactive; negative”; (Test System: AMES SALMONELLA TYPHIMURIUM, Strain/Indicator: TA100, Metabolic Activation: RAT LIVER S-9, PHENOBARBITAL AND BETA-NAPHTHOFLAVONE, Method: PREINCUBATION) “inactive; negative”; (Test System: AMES SALMONELLA TYPHIMURIUM, Strain/Indicator: TA100, Metabolic Activation: RAT, LIVER, S-9, AROCLOR 1254, Method: STANDARD PLATE) “inactive; negative”; under setting [2], “inactive; negative”; (Test System: AMES SALMONELLA TYPHIMURIUM, Strain/Indicator: TA102, Metabolic Activation: RAT LIVER S-9, PHENOBARBITAL AND BETA-NAPHTHOFLAVONE, Method: PREINCUBATION) “inactive; negative”; under setting [3], “inactive; negative”. Further, the mutagenic call is “active; positive” (Test System: AMES SALMONELLA TYPHIMURIUM, Strain/Indicator: TA104, Metabolic Activation: RAT LIVER S-9, PHENOBARBITAL AND BETA-NAPHTHOFLAVONE, Method: PREINCUBATION); “inactive; negative” (Test System: AMES SALMONELLA TYPHIMURIUM, Strain/Indicator: TA1535, Metabolic Activation: HAMSTER, LIVER, S-9, AROCLOR 1254, Method: STANDARD PLATE); “inactive; negative” under setting [4]; “inactive; negative” under setting [9]; “inactive; negative” (Test System: AMES SALMONELLA TYPHIMURIUM, Strain/Indicator: TA1535, Metabolic Activation: RAT LIVER S-9, PHENOBARBITAL AND BETA-NAPHTHOFLAVONE, Method: PREINCUBATION); “inactive; negative” (Test System: AMES SALMONELLA TYPHIMURIUM, Strain/Indicator: TA1535, Metabolic Activation: RAT, LIVER, S-9, AROCLOR 1254, Method: STANDARD PLATE). Also, the mutagenic call (Test System: AMES SALMONELLA TYPHIMURIUM, Strain/Indicator: TA1537, Metabolic Activation: HAMSTER, LIVER, S-9, AROCLOR 1254, Method: STANDARD PLATE) was “inactive; negative”; the mutagenic call under setting [5] was “inactive; negative”; the mutagenic call (Test System: AMES SALMONELLA TYPHIMURIUM, Strain/Indicator: TA1537, Metabolic Activation: NONE, Method: STANDARD PLATE) was “inactive; negative”; the mutagenic call (Test System: AMES SALMONELLA TYPHIMURIUM, Strain/Indicator: TA1537, Metabolic Activation: RAT LIVER S-9, PHENOBARBITAL AND BETA-NAPHTHOFLAVONE, Method: PREINCUBATION) was “inactive; negative”; the mutagenic call (Test System: AMES SALMONELLA TYPHIMURIUM, Strain/Indicator: TA1537, Metabolic Activation: RAT, LIVER, S-9, AROCLOR 1254, Method: STANDARD PLATE) is “inactive; negative”; the mutagenic call (Test System: AMES SALMONELLA TYPHIMURIUM, Strain/Indicator: TA1538, Metabolic Activation: HAMSTER, LIVER, S-9, AROCLOR 1254, Method: STANDARD PLATE) was “inactive; negative”. Also, the mutagenic call is, setting by setting: (Test System: AMES SALMONELLA TYPHIMURIUM, Strain/Indicator: TA1538, Metabolic Activation: NONE, Method: STANDARD PLATE) “inactive; negative”; (Test System: AMES SALMONELLA TYPHIMURIUM, Strain/Indicator: TA1538, Metabolic Activation: RAT, LIVER, S-9, AROCLOR 1254, Method: STANDARD PLATE) “inactive; negative”; (Test System: E.COLI, Strain/Indicator: WP2UVRA/PKM101, Metabolic Activation: NONE, Method: PREINCUBATION) “inactive; negative”; (Test System: E.COLI, Strain/Indicator: WP2UVRA/PKM101, Metabolic Activation: RAT LIVER S-9, PHENOBARBITAL AND BETA-NAPHTHOFLAVONE, Method: PREINCUBATION) “active; positive”; (Test System: E.COLI, Strain/Indicator: WP2UVRA, Metabolic Activation: NONE, Method: PREINCUBATION) “inactive; negative”; (Test System: E.COLI, Strain/Indicator: WP2UVRA, Metabolic Activation: RAT LIVER S-9, PHENOBARBITAL AND BETA-NAPHTHOFLAVONE, Method: PREINCUBATION) “inactive; negative”. Also, the mutagenic call is “active; positive. reevaluation of results: inconclusive” (Test System: MOUSE LYMPHOMA, Strain/Indicator: L5178Y (TK+/TK-), Metabolic Activation: NONE, Method: SUSPENSION/PLATE) and “active; positive. reevaluation of results: inconclusive” (Test System: MOUSE LYMPHOMA, Strain/Indicator: L5178Y (TK+/TK-), Metabolic Activation: RAT, LIVER, S-9, AROCLOR 1254, Method: SUSPENSION/PLATE).

`CCNC(=O)N(C=O)CCN(C)C`: the mutagenic call under setting [9] is “active; positive”.

For `Cc1ccc2c([N+](=O)[O-])cccc2c1`, the mutagenic call under setting [8] was “active; positive”.
